Molecules are shown by their SMILES.

Assay type in all cases: functional, cell-based
Conditions in all cases: Oryctolagus cuniculus

Experiment [1] can be described thus: Antiplatelet activity against washed rabbit platelet assessed as inhibition of arachidonic acid-induced platelet aggregation preincubated for 3 mins before arachidonic acid challenge.
Experiment [2] is described as follows: Antiplatelet activity against washed rabbit platelet assessed as inhibition of collagen-induced platelet aggregation preincubated for 3 mins before collagen challenge.
A short description of experiment [3]: Antiplatelet activity against washed rabbit platelet assessed as inhibition of thrombin-induced platelet aggregation preincubated for 3 mins before thrombin challenge.

A word on the IC50: it is the concentration that gives 50% inhibition. For `CCCCCCCC/C=C\CCCCCCCC(=O)OCC(C)C1=C(O)C(=O)c2c(ccc3c2CCCC3(C)C)C1=O` (configuration not stated), the IC50 is 5.1 µM in experiment [1], 50.4 µM in experiment [2] and > 100 µM in experiment [3].
For `CCCCCCCC/C=C\CCCCCCCC(=O)OCC(C)C1=C(O)C(=O)c2c(ccc3c(C)cccc23)C1=O` (configuration not stated) [16-O-OLEOYL DANSHENXINKUN A], the IC50 in experiment [1] was 25.5 µM; in experiment [2], 60.5 µM; in experiment [3], > 100 µM.
For `CC(=O)Oc1ccccc1C(=O)O` [ASPIRIN], the half-maximal inhibitory concentration (IC50) in experiment [1] was 27 µM.

(Values after ChEMBL document CHEMBL1150842, “Two new fatty diterpenoids from Salvia miltiorrhiza” (J Nat Prod, 2001).)
